Measurements reported in ChEMBL document CHEMBL5131473, “One-pot synthesis of oxoaporphines as potent antitumor agents and investigation of their mechanisms of actions” (Eur J Med Chem, 2022).
Calls of active or inactive are those of the source. The rule behind the calls is not given here.

Legend:
T-24 [1] = assay: Induction of mitochondrial ROS generation in human T24 cells at 2 uM measured after 24 hrs by Mitotracker Red dye based confocal microscopy method; assay type: functional, cell-based
T-24 [2] = assay: Antiproliferative activity against human T24 cells assessed as cell growth inhibition measured after 48 hrs by MTT assay; assay type: functional, cell-based; conditions: T-24, 48 h
T-24 [3] = assay: Antitumor activity against human T24 cells xenografted in BALB/c nude mouse assessed as reduction in tumor volume at 30 mg/kg, IG administered every 2 days for 14 days; assay type: functional; conditions: time 14 day
T-24 [4] = assay: Induction of apoptosis in human T24 cells assessed as viable cells at 2 uM incubated for 24 hrs by Annexin-V/PI staining based flow cytometry analysis (reference value: 94.3 %); assay type: functional; conditions: read-out: Activity
SK-OV-3 = assay: Antiproliferative activity against human SK-OV-3 cells assessed as cell growth inhibition measured after 48 hrs by MTT assay; assay type: functional, cell-based; conditions: SK-OV-3, 48 h
T-24 [5] = assay: Antitumor activity against human T24 cells xenografted in BALB/c nude mouse assessed as tumor growth inhibition at 30 mg/kg, IG administered every 2 days for 14 days; assay type: functional; parameters: scale not given: the % may be the effect or the level left; conditions: time 14 day
[6] = Toxicity in BALB/C nude mouse xenografted with human T24 cells assessed as effect on heart at 30 mg/kg, IG administered every 2 days for 14 days by H and E staining based assay; assay type: organism-based, T-24; conditions: in vivo, po, 336 h, time 14 day
HepG2 = assay: Antiproliferative activity against human HepG2 cells assessed as cell growth inhibition measured after 48 hrs by MTT assay; assay type: functional, cell-based; conditions: HepG2, 48 h
[7] = Toxicity in BALB/C nude mouse xenografted with human T24 cells assessed as effect on kidney at 30 mg/kg, IG administered every 2 days for 14 days by H and E staining based assay; assay type: organism-based, T-24; conditions: in vivo, po, 336 h, time 14 day
T-24 [8] = assay: Induction of apoptosis in human T24 cells assessed as increase in caspase 3 activity at 4 uM (Rvb= 3.1%); assay type: functional
T-24 [9] = assay: Induction of apoptosis in human T24 cells assessed as early apoptotic cells at 2 uM incubated for 24 hrs by Annexin-V/PI staining based flow cytometry analysis (reference value: 3.27 %); assay type: functional
T-24 [10] = assay: Induction of apoptosis in human T24 cells assessed as necrotic cells at 2 uM incubated for 24 hrs by Annexin-V/PI staining based flow cytometry analysis (reference value: 1.92 %); assay type: functional
WI-38 [11] = assay: Cytotoxicity against human WI-38 cells by MTT assay; assay type: toxicity, cell-based
T-24 [12] = assay: Induction of mitochondrial membrane potential dysfunction in human T24 cells assessed as increase in fragmentation at 2 uM incubated for 24 hrs by TEM analysis; assay type: functional, cell-based
MGC-803 = assay: Antiproliferative activity against human MGC-803 cells assessed as cell growth inhibition measured after 48 hrs by MTT assay; assay type: functional, cell-based; conditions: MGC-803, 48 h
[13] = Toxicity in BALB/C nude mouse xenografted with human T24 cells assessed as effect on liver at 30 mg/kg, IG administered every 2 days for 14 days by H and E staining based assay; assay type: organism-based, T-24; conditions: in vivo, po, 336 h, time 14 day
T-24 [14] = assay: Induction of ROS generation in human T24 cells at 2 uM by fluorescence microscopy; assay type: functional, cell-based
[15] = Toxicity in BALB/C nude mouse xenografted with human T24 cells assessed as effect on lung at 30 mg/kg, IG administered every 2 days for 14 days by H and E staining based assay; assay type: organism-based, T-24; conditions: in vivo, po, 336 h, time 14 day
WI-38 [16] = assay: Induction of apoptosis in human WI-38 cells at IC50; assay type: toxicity, cell-based
T-24 [17] = assay: Induction of apoptosis in human T24 cells assessed as viable cells at 4 uM incubated for 24 hrs by Annexin-V/PI staining based flow cytometry analysis (reference value: 94.3 %); assay type: functional; conditions: read-out: Activity
WI-38 [18] = assay: Antiproliferative activity against human WI-38 cells assessed as cell growth inhibition measured after 48 hrs by MTT assay; assay type: functional, cell-based; conditions: WI-38, 48 h
T-24 [19] = assay: Cytotoxicity against human T24 cells assessed as decrease in cell viability measured after 48 hrs by MTT assay; assay type: toxicity, cell-based; conditions: t-24, 48 h, 20 µM, DDE = dose-dependent effect
T-24 [20] = assay: Antitumor activity against human T24 cells xenografted in BALB/c nude mouse assessed as inhibition of tumor metastasis in liver at 30 mg/kg, IG administered every 2 days for 14 days; assay type: functional, organism-based; conditions: time 2.0 day
[21] = Toxicity in BALB/C nude mouse xenografted with human T24 cells assessed as decrease in body weight at 30 mg/kg, IG administered every 2 days for 14 days; assay type: organism-based, T-24; conditions: in vivo, po, 336 h, time 14 day
T-24 [22] = assay: Induction of apoptosis in human T24 cells assessed as late apoptotic cells at 2 uM incubated for 24 hrs by Annexin-V/PI staining based flow cytometry analysis (reference value: 0.543 %); assay type: functional
T-24 [23] = assay: Induction of mitochondrial membrane potential dysfunction in human T24 cells assessed as mitochondrial fragment condensation at 2 to 4 uM by mito-tracker green dye based fluorescence microscopy; assay type: functional, cell-based; conditions: dose 2-4 µM
T-24 [24] = assay: Induction of mitochondrial membrane potential dysfunction in human T24 cells assessed as change in morphology at 0.5 to 1 uM by Mitotracker green dye based fluorescence microscopy; assay type: functional, cell-based; conditions: dose 0.5-1 µM
T-24 [25] = assay: Induction of mitochondrial Ca2+ production in human T24 cells assessed as increase in intracellular Ca2+ concentration at 0.5 uM by Rhod2-AM staining based fluorescence microscopic method; assay type: functional, cell-based
T-24 [26] = assay: Induction of cell cycle arrest in human T24 cells assessed as accumulation of cells at S phase at 0.5 uM incubated for 24 hrs by propidium iodide/RNase A staining based flow cytometry analysis (reference value: 42.47 %); assay type: functional
T-24 [27] = assay: Induction of apoptosis in human T24 cells assessed as necrotic cells at 1 uM incubated for 24 hrs by Annexin-V/PI staining based flow cytometry analysis (reference value: 1.92 %); assay type: functional
[28] = Toxicity in human WI-38 cells assessed as wound closure at 0.25 uM measured after 24 hrs by fluorescence microscopy based wound healing assay; assay type: cell-based; conditions: wi-38, 24 h
T-24 [29] = assay: Inhibition of cell migration in human T24 cells assessed as recovery of wound area at 5 uM measured after 24 hrs by wound healing assay based fluorescence microscopy; assay type: functional; parameters: scale not given: the % may be the effect or the level left
T-24 [30] = assay: Induction of apoptosis in human T24 cells assessed as contracted small fragmented nuclei at 10 uM by Hoechst33258 staining based fluorescence microscopy; assay type: functional, cell-based
T-24 [31] = assay: Induction of Ca2+ production in human T24 cells assessed as increase in intracellular Ca2+ concentration at 10 uM by Fluo3-AM staining based fluorescence microscopic method; assay type: functional, cell-based
T-24 [32] = assay: Induction of apoptosis in human T24 cells assessed as necrotic cells at 20 uM incubated for 24 hrs by Annexin-V/PI staining based flow cytometry analysis (reference value: 1.92 %); assay type: functional
T-24 [33] = assay: Induction of ROS generation in human T24 cells at 10 uM by fluorescence microscopy; assay type: functional, cell-based
T-24 [34] = assay: Induction of cell cycle arrest in human T24 cells assessed as accumulation of cells at G2/M phase at 15 uM incubated for 24 hrs by propidium iodide/RNase A staining based flow cytometry analysis (reference value: 5.82 %); assay type: functional
T-24 [35] = assay: Induction of apoptosis in human T24 cells assessed as increase in caspase 9 activity at 15 uM (Rvb= 7.2%); assay type: functional

Row | IC50 (SK-OV-3) | IC50 (HepG2) | IC50 (MGC-803) | Compound | IC50 (T-24 [2]) | Activity (T-24 [3]) | viability at 2 µM (T-24 [4]) | Activity (T-24 [5]) | Activity [6] | Activity [7] | Activity (T-24 [9]) | Activity (T-24 [10]) | Activity (WI-38 [11]) | Activity [13] | Activity [15] | Activity (WI-38 [16]) | IC50 (WI-38 [18]) | Activity (T-24 [19]) | Activity (T-24 [20]) | Activity [21] | Activity (T-24 [22]) | other results
1 | 16 µM | 2.2 µM | 2.3 µM | O=C1c2cc([N+](=O)[O-])ccc2-c2ccc([N+](=O)[O-])c3ccnc1c23 | 2 µM | 846.52 mm3 | 65.8% | 30.7% | Non-Toxic | Non-Toxic | 27.4% | 1.97% | Non-Toxic | Non-Toxic | Non-Toxic | Non-Toxic | 20.4 µM | Dde | Active | Non-Toxic | 4.79% | Activity (T-24 [1]): Active; Activity (T-24 [8]): 28%; Activity (T-24 [12]): Active; Activity (T-24 [14]): Active; viability at 4 µM (T-24 [17]): 59.4%; Activity (T-24 [23]): Active
2 | 8.9 µM | 1.3 µM | 1.1 µM | O=C1c2ccccc2-c2ccc([N+](=O)[O-])c3ccnc1c23 | 0.5 µM | 605.28 mm3 | 32.7% | 49.5% | Non-Toxic | Non-Toxic | 57.7% | 0.914% | Non-Toxic | Non-Toxic | Non-Toxic | Non-Toxic | 14.8 µM | Dde | Active | Non-Toxic | 8.68% | Activity (T-24 [24]): Active; Activity (T-24 [25]): Active; Activity (T-24 [26]): 47.37%; Activity (T-24 [27]): 1.57%; Activity [28]: Non-Toxic
3 | 37 µM | 12.3 µM | 12.6 µM | O=C1c2ccccc2-c2cccc3ccnc1c23 | 9.5 µM | 722.033 mm3 | – | 40.8% | Non-Toxic | Non-Toxic | – | – | Non-Toxic | Non-Toxic | Non-Toxic | Non-Toxic | 20.2 µM | Dde | Active | Non-Toxic | – | Activity (T-24 [29]): 21.7%; Activity (T-24 [30]): Active; Activity (T-24 [31]): Active; Activity (T-24 [32]): 2.31%; Activity (T-24 [33]): Active; Activity (T-24 [34]): 22.69%; Activity (T-24 [35]): 26.3%
